Columns and labels:
Leishmania [1] = test: Leishmaniasis serology: quantitative anti-Leishmania immunofluorescence; format: in vivo, dog; design: key: +: IF: Immunofluorescence (considered positive if the titer is ≧1/100); − = absence; details: healthy dogs vaccinated with peptide(s) 50 μg + muramyl dipeptide 100 μg; analyses 2 months and 12 months after the infectious test
Excerpt: In parallel to the study of the specific activation of the T lymphocytes the Th1 type by intradermoreaction, dosage of the NO (NO is synthesized by monocytes activated by the cytokines of the T cells of the Th1 type) and lymphocyte proliferation, a serological monitoring by traditional immunofluorescence using strips coated with the promastigotes (serological reference method for canine leishmaniasis) is done.
(§1) The biological analyses consist of: • biochemical analyses: urea, creatine, transaminases • hematological analyses: count, formula • serology leishmaniasis: quantitative anti-Leishmania immunofluorescence, dosage by the ELISA method of IgG2s specific to the peptides A16E and/or A16G • cellular response tests: IDR test (IntraDermoReaction) done with leishmanines and also with A16E and A16G peptides, dosage of NO and lymphoblastic proliferation.

[2] = system: IgG2 specific to the peptides A16E and/or A16G; test: ELISA detection of IgG2 specific to the peptides A16E and A16G; format: in vivo, dog; details: vaccinated dogs, ELISA towards the corresponding peptides; for SEROLOGY ELISA IgG2 (positive/negative): 2 months and 12 months after the infectious test; for SEROLOGY ELISA IgG2 (optical density): cut off 0.300 OD
Excerpt: Detection of immunoglobulins of the isotype IgG2 of dogs, specifically of the peptides A16E and A16G and their derivatives:
This detection is done by the ELISA method according to the microtitration technique of Kweider et al (J. Immunol. 1987, 138, 299) using a bonded anti IgG2. For this method, the peptides are biotinylated prior to coating on microplates.
as §1

Leishmania [3] = test: Parasitemy: direct exam of bone marrow smear and cultivation on NNN medium; format: in vivo, dog; design: key: − = absence; details: vaccinated dogs, 2 months and 12 months after the infectious test
Excerpt: A parasitological exam was done from the sample taken directly from the candidate studied, a dog, for example.
A smear of a puncture of the bone marrow is made on a slide. This smear, fixed once by methanol, is stained with May-Grünwald-Geimsa and observed by an immersion microscope (x 1000).
Samples of the bone marrow are brought under cultivation in the biphase cultivation medium NNN (Novy and Mac Neal, 1904, 4. Infec. Dis., 1:1-30), of which RPMI 1640 supplemented with 20% decomplemented fetal calf serum constitutes the liquid phase. The blind subculturings were done every four to six days. The cultures are regularly observed in a photon microscope (×400) for 20 min.
The parasitemy was quantified as follows:
The infectious examination consists in intravenously injecting 106 treated promastigotes in metacyclic phase in the complement of a healthy dog and 5.106 peritoneal macrophages of a healthy dog, infected in vitro by the amastigotes.
The promastigotes and infected macrophages are diluted in sterile physiological serum for a final volume of 1.5 ml. This mixture is made just prior to injection.
To these analyses must be added the search for Leishmania by direct observation in a microscope and cultivation on NNN medium from bone marrow after the infectious test.

[4] = system: cell-mediated immunity of the Th1 type; test: Intra Dermo Reaction (IDR) test; format: in vivo, dog; details: vaccinated dogs, 2 months after the infectious test; for IDR A16E: IDR done with peptide A16E; for IDR A16G: IDR done with peptide A16G; for IDR Leishmanines: read 48 h after intradermoinjection
Experimental: Evidence of the involvement of a cell-mediated immunity of the Th1 type:
Leishmanias of the promastigote forms are cultivated in the standard culture media. Parasites are harvested from the end of the exponential phase (6-7 days). The parasitic residue is washed three times by centrifugation (2500 g, […], 4° C.) in a PBS buffer.
After having verified the viability of the parasites using a vital stain (Trypan Blue), a suspension containing […] parasites per ml is inactivated in a PBS buffer containing 0.01% merthiolate (Pinelli et al., 1994, Infect. Immun., 62: 229-235). This constitutes the leishmanias for the intradermoreaction test (IDR).
Dogs are placed in lateral decubitus and a delicate and non-irritating shearing is done on the thoracic zone approximately 5 cm by 10 cm behind the elbow. Four circles 10 mm in diameter are marked using a felt-tip pen.
Into the center of the circles, 0.1 ml of solution is injected in an intradermo-injection. Two circles receive the solution of leishmanias and the 2 other circles receive the saline methiolated solution in the negative control. The reading of the Intra Dermo Reaction (IDR) is done 48 hours later using an allergologic gauge.
The test is considered positive if the mean of the two observed induration diameters is greater than or equal to 5 mm. The observation of an erythema without induration will be considered to be a negative test (Pinelli et al., 1994, Infect. Immun., 62: 229-235; Marty et al., 1994, Trans. Roy. Soc. Trop. Med. Hyg., 88, 658-659).
The IDRs can also be performed with a solution of peptides A16E and A16G or their derivatives and MDP, for example, in proportions of 10 μg of peptides for 20 μg of MDP.

[5] = system: peripheral blood mononuclear cells (PBMC); test: Lymphocyte (lymphoblastic) proliferation test; format: cell-based, dog; details: vaccinated dogs; 2 months after the infectious test
Experimental: Next, a test is done on the lymphocyte proliferation.
The peripheral blood mononuclear cells (PBMC) of dogs are separated on the Ficoll gradient (density 1.078) by centrifugation at 800 g for 20 mn at ambient temperature. These cells are brought under cultivation on a plate having 96 wells at a concentration of 2.10^5 cells per well in the presence of 2 μg per ml of Concanavalin A (Sigma), 5 μg per ml of ES P (excretion—secretion promastigotes) or […] of supernatants of culture harvested in the stationary phase of growth of promastigotes (SP) per well, and in the absence of any additive in a volume of […] of the medium RPMI 1640 containing 5% decomplemented fetal calf serum, 2 mM of L-glutamine, 100 U of penicillin per ml, […] of streptomycin per ml. The optimal antigen and mitogen concentrations have been determined in prior experiments. […] The cells are harvested over a filter and the incorporation of the radioactivity is determined by counting in a scintillating liquid (β-counter). […]
The lymphocytary proliferation has also been estimated by visual readings in a photon microscope (−: negative; +/−: slight proliferation; +: little proliferation less than 5 points per microscopic field; ++: mean proliferation greater than 5 points; +++: strong proliferation).

Q: For “A-A-R-S-A-R-S-R-E-G-Y-S-L-T-D-E [A16E, 16 amino acid peptide specific to Leishmania]”, which “SEROLOGY IF Quantitative” value (Leishmania [1]) is on record?
A: The value was “−”.

Q: What about the “SEROLOGY ELISA IgG2 (positive/negative)” value [2] of the same substance?
A: Its value is “+ (ELISA: Cut off = 0.300 OD (optical density))”.

Q: And the “SEROLOGY ELISA IgG2 (optical density)” value [2]?
A: The value was 0.700 OD.

Q: And the “Cultivation on NNN Medium” value (Leishmania [3])?
A: The value was “−”.

Q: What about the “PARASITEMY Direct Exam” value (Leishmania [3]) of the same substance?
A: The value was “−”.

Q: What about the “IDR A16E” value [4] of the same substance?
A: The value was “+ (The Intra Dermo Reaction test is considered positive (+) if the induration is ≧5 mm 48 h. after intradermoinjection)”.

Q: What about the “IDR A16G” value [4] of the same substance?
A: Its value is “Limit”.

Q: What about the “IDR Leishmanines” value [4] of the same substance?
A: Its value is “+ (The Intra Dermo Reaction test is considered positive (+) if the induration is ≧5 mm 48 h. after intradermoinjection)”.

Q: What about the “Lymphoblastic Proliferation Test, reading in a photon microscope” value [5] of the same substance?
A: Its value is “+ (little proliferation less than 5 points per microscopic field)”.

Q: With “A-A-S-S-T-P-S-P-G-S-G-C-E-V-D-G [A16G, 16 amino acid peptide specific to Leishmania]” as the substance, how does the “SEROLOGY IF Quantitative” value (Leishmania [1]) read?
A: The value was “−”.

Q: What about the “SEROLOGY ELISA IgG2 (positive/negative)” value [2] of the same substance?
A: Its value is “+ (ELISA: Cut off = 0.300 OD (optical density))”.

Q: And the “SEROLOGY ELISA IgG2 (optical density)” value [2]?
A: Its value is 0.520 OD.

Q: What about the “Cultivation on NNN Medium” value (Leishmania [3]) of the same substance?
A: Its value is “−”.

Q: What about the “PARASITEMY Direct Exam” value (Leishmania [3]) of the same substance?
A: Its value is “−”.

Q: What about the “IDR A16E” value [4] of the same substance?
A: Its value is “Limit”.

Q: What about the “IDR A16G” value [4] of the same substance?
A: The value was “+ (The Intra Dermo Reaction test is considered positive (+) if the induration is ≧5 mm 48 h. after intradermoinjection)”.

Q: What about the “IDR Leishmanines” value [4] of the same substance?
A: The value was “+ (The Intra Dermo Reaction test is considered positive (+) if the induration is ≧5 mm 48 h. after intradermoinjection)”.

Q: What about the “Lymphoblastic Proliferation Test, reading in a photon microscope” value [5] of the same substance?
A: Its value is “++ (mean proliferation greater than 5 points)”.

Source: patent publication US20050079186A1, “Therapeutic vaccine peptide complex for preventing and treating disorders in mammals” (ORIDAN, Inc., priority 2001, published 2005)
